Data: paper PMC10644342, “Improved Antibacterial Activity of 1,3,4-Oxadiazole-Based Compounds That Restrict Staphylococcus aureus Growth Independent of LtaS Function” (ACS Infectious Diseases, 2023)
Values after ≈ are worked out from the molar mass of the structure shown.

Experiments:
[1] = system: S. epidermidis strain RP62A; assay: Biofilm prevention, crystal violet assay; type: cell-based, Staphylococcus epidermidis; settings: for concentration causing a 50% reduction in biofilm formation: 24 h
Protocol: An indication of the biofilm prevention capabilities of 1771 and its derivatives 9–14 was achieved through the application of the crystal violet assay. S. aureus strain SH1000 and S. epidermidis strain RP62A were used, as they are strong biofilm formers. Overnight cultures were diluted 1:200 in fresh TSB containing 0.5% glucose (TSB-G), and 100 μL was added to individual wells in a 96-well microtiter plate. One hundred microliters of 1771 and 9–14 were diluted in TSB-G and added to bacteria at a final concentration ranging from 256 to 0.25 μg/mL with subsequent incubation for 24 h at 37 °C in a static incubator. Following incubation, biofilms were washed four times with ddH2O before being stained with 150 μL of 0.1% crystal violet for 30 min at room temperature. Following a further four washes in ddH2O, wells were resuspended in 200 μL of 7% acetic acid. The absorbance intensity of the crystal violet was measured at abs595nm in a Sunrise plate reader. Biomass formed was measured as a percentage of the no-compound control.

[2] = system: E. coli strain K12; design: method as in PMID 23401520; settings: initial small-molecule library screen; cited from earlier work
[3] = system: MRSA strain LAC; assay: Minimum bactericidal concentration; type: cell-based, Staphylococcus aureus; settings: for classification bactericidal/bacteriostatic: time kill and MBC
Protocol: For an antibiotic with an MBC ≤ 4×, the MIC was considered to be bactericidal, whereas with an MBC > 4×, the MIC was considered to be bacteriostatic.[24] […] Percentage survival was calculated according to the starting inoculum of 5 × 10^5 cfu at time 0 h.

[4] = system: LTA; design: method as in PMID 23401520; settings: cited from earlier work
[5] = system: S. aureus; design: method as in PMID 23401520; settings: incubation for 3–4 days; cited from earlier work
[6] = system: MRSA strains LAC and EMRSA-15; assay: Serial passage resistance study; type: cell-based, Staphylococcus aureus; settings: 25 days serial passage, after 14 days, then stable for 11 days
Protocol: plotted against time following 18 hours of growth at 37 °C. The icons represent the mean of three biological replicates.
Supplementary Materials and Methods
Synergistic activity with clinically relevant antibiotics
The synergistic ability of 1771 and 13 was achieved using the chequerboard micro-broth dilution method. Antibiotic partners tested included: oxacillin, daptomycin, vancomycin, gentamicin, and linezolid with starting concentrations of 256 µg/ml, 8 µg/ml, 8 µg/ml, 4 µg/ml, and 8 µg/ml respectively. Overnight cultures were sub-cultured 1:200 in fresh MHB and grown to optical density of OD600nm of 0.5-0.6 and prepared according to the MIC analysis. Following an 18 h incubation at 37 °C the sum of the fractional inhibitory […]
using the equation ΣFIC = FICA +FICB = (MICA in combination with B/MICA) + (MICB in combination with A/MICB). The resulting value was interpreted according to the following rules: synergistic (FIC ≤ 0.5), additive (FIC >0.5, <1) or indifferent (FIC ≥ 1 <4).
Serial passage resistance study
A serial passage in 1771 was performed using MRSA strains, LAC and EMRSA-15. For this assay, 15 ml tubes were filled with 3 ml of MHB and varying concentrations of 1771. The tubes containing either LAC or EMRSA-15 were incubated at 37 °C for 24 h before each passage. […]

[7] = system: HepG2 human liver cancer cells; assay: HepG2 liver cell toxicity assay (MTT); type: cell-based; settings: for IC50: Homo sapiens, 24 h incubation, MTT, concentration responsible for 50% HepG2 cell death
Protocol: HepG2 human liver cancer cells (ECACC: Cat no. 85011430) were grown in Dulbecco’s Modified Eagle’s Medium (DMEM; with 4.5 g/L glucose) supplemented with 10% (v/v) fetal bovine serum, 1% (v/v) minimal essential media, and 0.2% (v/v) penicillin/streptomycin/L-glutamine solution. Cells were then seeded at a concentration of 10,000 cells per well and allowed to attach and grow for 18 h. Following this, the medium was aspirated away and replaced with a medium containing a range of concentrations of 1771 and compound 13, and the cells were grown for a further 24 h. After this, cell viability was assessed using the MTT (3-[4,5-dimethylthiazol-2-yl]-2,5-diphenyltetrazolium bromide) assay. 1771 or 13 containing growth media was aspirated away and replaced with 100 μL of 1 mg/mL MTT (in growth media) and incubated for 50 min at 37 °C. Subsequently, this solution was removed, and 150 μL of isopropanol was added to the cells and allowed to incubate at RT with gentle rocking on an orbital shaker. Absorbance at abs595nm was recorded using a Sunrise plate reader, and the % cell viability was calculated compared to a no-compound control.

[8] = system: LtaS; design: method as in PMID 29300473; settings: LtaS in artificial liposomes; cited from earlier work
[9] = system: Pseudomonas aeruginosa strain PAO1; assay: Growth inhibition in combination with PAβN; type: cell-based; settings: 32 μg/mL compound with 100 μg/mL PAβN
Protocol: Phenylalanine-arginine β-naphthylamide (PAβN) is a well-studied efflux pump inhibitor, which can also permeabilize the outer membrane of Gram-negative organisms.[40] […] Without the addition of PAβN (0 μg/mL), neither 1771 nor 13 had any growth inhibitory activity at concentrations up to 64 μg/mL. With the addition of 25 μg/mL of PAβN, the E. coli strain K12 could still grow in the presence of 64 μg/mL of 1771 or 13; however, the growth rate was severely impacted in a dose-dependent manner. […] To further evaluate the Gram-negative coverage of 1771 and 13, we also tested 1771 or 13 in combination with PAβN against Pseudomonas aeruginosa strain PAO1, Klebsiella pneumoniae strain 699 (clinical isolate), and Acinetobacter baumannii strain DF1000 (clinical isolate) (Figure S6a–c).
Figure S6. Permeabilization of the outer membrane renders Gram-negative bacteria susceptible to 1771 and compound 13. Bacterial growth curves of A) Klebsiella pneumoniae, B) Acinetobacter baumannii and C) Pseudomonas aeruginosa against 1771 and 13 (0 – 64 µg/ml) in combination with 0, 25, 50, 100 µg/ml of PAβN. The bacterial growth (OD 600nm) was […]
(1 picture or pasted object on this page, not shown here)

O=C(COC(=O)Cc1coc2ccc3ccccc3c12)Nc1nnc(-c2ccccc2)o1 [Compound 1771, 2-Oxo-2-((5-phenyl-1,3,4-oxadiazol-2-yl)amino)ethyl 2-(Naphtho[2,1-b]furan-1-yl)acetate, reference compound]
concentration causing a 50% reduction in biofilm formation [1]: 8 µg/mL | effect on the growth of Escherichia coli [2]: no effect on the growth | classification bactericidal/bacteriostatic [3]: bacteriostatic | LTA signal [4]: dose-dependent reduction in the LTA signal | resistant mutant selection [5]: did not result in resistant mutant selection | change of MIC on serial passage [6]: increased twofold | selectivity index (IC50/MIC50) ([7]; HepG2 IC50 / S. aureus MIC50): 3.08 | IC50 [7]: 24.7 µg/mL (≈ 57.8 µM) | inhibition of LtaS polymerization activity [8]: did not show inhibitory activity

O=C(COC(=O)Cc1coc2ccc3ccccc3c12)Nc1nnc(-c2ccc(S(F)(F)(F)(F)F)cc2)o1 [Compound 13, 2-Oxo-2-((5-(4-(pentafluoro-l6-sulfaneyl)phenyl)-1,3,4-oxadiazol-2-yl)amino)ethyl 2-(Naphtho[2,1-b]furan-1-yl)acetate]
biofilm prevention compared with 1771 [1]: better than 1771 | concentration causing a 50% reduction in biofilm formation [1]: 0.25 µg/mL | minimal bactericidal concentration (MBC) ([3]; 8 to 128 μg/mL (up to 256× MIC)): could not be elucidated | classification bactericidal/bacteriostatic [3]: bacteriostatic | growth of PAO1 [9]: severely inhibited | IC50 [7]: 27.3 µg/mL (≈ 49.3 µM)
